Measured values: US20100197601A1, “USE OF A FIBRINOGEN RECEPTOR ANTAGONIST AND/OR FOLLICULAR GONADOTROPIN RELEASING PEPTIDE AS A THERAPEUTIC AGENT IN THE TREATMENT OF STREPTOCOCCUS PNEUMONIA INFECTION” (priority 2007, published 2010)
Primed or numbered codes have the meaning given here. Where no end group is shown, it is not given here. [ ]: non-standard residue; d: D form. Pen′ = not defined here

Tests used:
HIV-1IIIB = assay: HIV-1 antiviral assay in CEM-SS cells
HCMV strain AD169 = assay: HCMV plaque formation assay in MRC-5 cells; assay type: cell-based; settings: for inhibition of HCMV plaque formation as compared to the virus control experiment: 10 micrograms per ml, 7-10 days
[1] = test system: Primary Human endothelial cells (HUVEC); assay: Endothelial cell migration assay; assay type: cell-based; settings: 10 micrograms per ml, 22 hours, combination peptide 1:peptide 2 1.10 mole:0.90 mole
Streptococcus pneumoniae = Streptococcus pneumoniae assay; assay type: cell-based; settings: 10 micrograms per ml; 5x10^5 CFU/mL; read visually; combination for instance 0.95 mole peptide 1 and 1.05 mole peptide 2
[2] = test system: murine spleen cells restimulated with Ovalbumin; assay: Th1/Th2 cytokine profiling assay; assay type: cell-based, Balb/c mice; settings: 10 micrograms per ml
HUVEC = assay: Endothelial tube formation assay; assay type: cell-based, human; settings: 10 micrograms per ml, 20 hours
Method: The endothelial tube formation assay is based on the ability of endothelial cells to form three-dimensional capillary-like tubular structures when cultured on a gel of basement membrane extract. The endothelial tube formation assay represents a powerful model for studying inhibition and induction of angiogenesis. Pre-labeled HUVEC with Calcein AM were seeded in a 96-well culture plate coated with extracellular metrix (Chemicon international Cat. ECM625) and treated with test peptides—10 micrograms per ml—in full growth medium. Positive control wes vehicle only. The endothelial cells were allowed to form tubes foe 20 hours and were then examined under an inverted fluorescent microscope. Duplicate wells for each treatment were photographed and quantitatively analyzed for an average tubule length using image analysis software ImageProPlus. Raw data were expressed as average tubule lengths in pixels±standard deviation. Statistic p values were computed using the Student's t-test.

[3] = test system: hepatitis B virus (HBV) ayw strain; assay: HBV experimental assay system, HepG2-2.2.15; assay type: cell-based; settings: 10 micrograms per ml, six days, HBV DNA by TaqMan PCR, combination 0.95 mole peptide 1 and 1.05 mole peptide 2
[4] = combination 0.95 mole peptide 1 and 1.05 mole peptide 2

Compound	antiviral activity of positive control compounds (HIV-1) (HIV-1IIIB)	inhibition of the migration of human endothelial cells [1]	inhibition of the growth of Streptococcus pneumoniae (Streptococcus pneumoniae)	inhibition of HCMV plaque formation as compared to the virus control experiment (HCMV strain AD169)	production of TNF-alpha, induced by ([2]; 72 hours)	change of the production of IL-2 [2, 4]	other results
Cc1cn([C@H]2C[C@H](N=[N+]=[N-])[C@@H](CO)O2)c(=O)[nH]c1=O [AZT]	expected levels of antiviral activity	–	–	–	–	–	–
Nc1nc(O)c2ncn(COC(CO)CO)c2n1 [Ganciclovir, reference compound]	–	–	–	–	–	–	antiviral activity of positive control compound (HCMV) (HCMV strain AD169; positive control): expected levels of antiviral activity
CC(C)(C)NC(=O)[C@@H]1CN(Cc2cccnc2)CCN1C[C@@H](O)C[C@@H](Cc1ccccc1)C(=O)N[C@H]1c2ccccc2C[C@H]1O [indinavir]	expected levels of antiviral activity	–	–	–	–	–	–
Ac-Pen-Arg-Gly-Asp-Cys-OH (Ac-[Pen′]RGDC-OH; reading uncertain; also: printed as Ac-Pen-Arg-Gly-Asp-Cys-OH) [Peptide 1]	–	4%	100%	did not inhibit	30.0%	did not significantly change	production of IL-4, decreased by ([2]; 72 hours): 44%; production of IL-5, decreased by ([2]; 72 hours): 26.5%; change of the production of IFN-y [2, 4]: did not significantly change; inhibition of the tube formation of human endothelial cells (HUVEC; combination peptide 1:peptide 2 1.10 mole:0.90 mole): 26%; inhibition of HBV replication as compared to the virus control infection [3]: no effect
Thr-Asp-Thr-Ser-His-His-Asp-Gln-Asp-His-Pro-Thr-Phe-Asn-OH (TDTSHHDQDHPTFN-OH) [Peptide 2]	–	8%	100%	did not inhibit	34%	did not significantly change	production of IFN-y, induced by ([2]; 72 hours): 23.4%; production of IL-4, induced by ([2]; 72 hours): 29%; change of the production of IL-5 [2, 4]: did not significantly change; increase of the tube formation of endothelial cells (HUVEC): 11%
